The target of one data set is T1, ADAR1 (Homo sapiens, UniProt P55265).
T1 construct: Full-length human adenosine deaminase, RNA-specific (ADAR1), transcript variant 1; T2A-GFP cassette of the vector pCDH-EF1-T2A-GFP (self-cleaving 2A; any remnant on ADAR1 not described); expressed in transfected cells; host or cells: K562 leukemia cells, lentiviral transduction (pCDH backbone)
T1 sequence (P55265 1-1226): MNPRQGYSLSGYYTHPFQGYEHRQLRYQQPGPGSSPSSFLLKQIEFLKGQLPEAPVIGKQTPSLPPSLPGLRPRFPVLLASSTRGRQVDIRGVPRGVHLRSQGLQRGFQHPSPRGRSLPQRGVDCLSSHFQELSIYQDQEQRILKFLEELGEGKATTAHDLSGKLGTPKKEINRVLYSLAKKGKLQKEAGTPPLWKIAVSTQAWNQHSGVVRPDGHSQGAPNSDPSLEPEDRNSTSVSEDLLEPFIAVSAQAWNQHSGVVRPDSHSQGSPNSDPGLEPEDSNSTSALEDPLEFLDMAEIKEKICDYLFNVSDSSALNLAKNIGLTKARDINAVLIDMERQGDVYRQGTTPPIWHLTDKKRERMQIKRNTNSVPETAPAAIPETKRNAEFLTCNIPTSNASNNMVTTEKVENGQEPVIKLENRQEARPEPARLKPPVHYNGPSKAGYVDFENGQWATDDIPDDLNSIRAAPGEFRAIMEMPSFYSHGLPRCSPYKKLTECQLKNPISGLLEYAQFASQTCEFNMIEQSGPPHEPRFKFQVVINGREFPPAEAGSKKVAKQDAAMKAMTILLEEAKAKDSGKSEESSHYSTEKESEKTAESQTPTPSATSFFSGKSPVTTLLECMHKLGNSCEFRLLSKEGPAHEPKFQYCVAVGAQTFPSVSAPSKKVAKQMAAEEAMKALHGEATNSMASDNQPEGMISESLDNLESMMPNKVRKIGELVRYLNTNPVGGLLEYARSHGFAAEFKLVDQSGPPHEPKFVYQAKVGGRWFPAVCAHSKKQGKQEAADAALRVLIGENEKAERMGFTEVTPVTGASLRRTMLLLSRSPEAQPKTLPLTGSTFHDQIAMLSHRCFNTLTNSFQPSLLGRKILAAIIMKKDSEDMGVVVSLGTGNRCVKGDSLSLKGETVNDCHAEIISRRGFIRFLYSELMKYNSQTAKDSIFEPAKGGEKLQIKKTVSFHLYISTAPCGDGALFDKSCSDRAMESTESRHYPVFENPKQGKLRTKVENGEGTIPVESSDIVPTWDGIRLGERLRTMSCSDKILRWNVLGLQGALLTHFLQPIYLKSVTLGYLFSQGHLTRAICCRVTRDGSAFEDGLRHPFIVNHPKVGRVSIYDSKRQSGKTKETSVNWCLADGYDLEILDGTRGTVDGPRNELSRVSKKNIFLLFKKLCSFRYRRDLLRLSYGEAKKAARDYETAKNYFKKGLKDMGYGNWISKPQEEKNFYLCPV
Briefly: RESSqPCR RNA editing ratio of APOBEC3D in K562 cells transduced with ADAR1 WT or ADAR1 E912A mutant. The class given is cell-based. Particulars: K562 leukemic cell line, lentiviral ADAR1 WT or ADAR1 E912A. An excerpt: FIG. 5b graphically illustrates data of a RNA editing ratio of APOBEC3D by RESSqPCR in K562 leukemia cells transduced with ADAR1 WT and ADAR1E912A mutant following 8-aza treatment (n=3). The values are normalized to the editing ratio observed in pCDH control cells.
As previously described (Yildirim et al., 2013), for each RNA editing site, two sets of primers were used: one pair detecting the WT transcript (an “A” base), and one pair detecting the edited transcript containing a “G” base representing inosine substitution. The forward (FW) outer and reverse (REV) outer primers flank the editing site and can be used for Sanger sequencing validation of each editing site, and also as a qRTPCR positive control to ensure that the editing region is detectable in cDNA. The 3′ ends of the FW inner and REV inner primers match either the WT A or edited G nucleotide, and an additional mismatch was incorporated two nucleotides upstream of the 3′ primer end to enhance allelic discrimination, as previously described for quantitative detection of transcripts harboring single nucleotide genomic mutations. RESSqPCR was performed as recently described (Yildirim et al., 2013) using highly validated RNA editing site specific primers for APOBEC3D. […] Relative RNA editing rates (Relative edit/WT RNA) were calculated using the following calculation: 2^-(Ct Edit-Ct WT).

In the next data set the test system is ADAR1 isoforms (p150). As to the kind of experiment: qRT-PCR of ADAR1 expression in CD34+ cord blood cells co-transduced with lenti-JAK2 and lenti-BCR-ABL on SL/M2 stromal cultures. Particulars: for ADAR1 expression: JAK2/BCR-ABL1 transduced progenitors, two weeks SL/M2 stromal co-culture, 8-Aza 10-25 nM, SAR302503 100 nM.
Another data set relates to LIN28B. Briefly: LIN28B expression in CD34+ cord blood cells co-transduced with lenti-JAK2 and lenti-BCR-ABL. The class given is cell-based, human. Particulars: JAK2/BCR-ABL1 transduced progenitors, two weeks SL/M2 stromal co-culture; 8-Aza 10-25 nM, SAR302503 100 nM.
The test system of another data set is RNA editing of APOBEC3D. Briefly: RESSqPCR RNA editing ratio of APOBEC3D in CD34+ cord blood cells co-transduced with lenti-JAK2 and lenti-BCR-ABL. The class given is cell-based, human. Particulars: JAK2/BCR-ABL1 transduced progenitors, two weeks SL/M2 stromal co-culture; 8-Aza 10-25 nM, SAR302503 100 nM.
For data set [1], the system named is normal CD34+ hematopoietic progenitors. Briefly: Secondary colony replating of normal CD34+ progenitors after SL/M2 stromal co-culture. The class given is cell-based, human. Particulars: SL/M2 stromal co-cultures; 8-Aza 10-25 nM, SAR302503 100 nM. Here is the method: FIG. 5h graphically illustrates data of a percentage of secondary colonies formed after replating primary colonies from normal bone marrow or BC CD34. cells treated with different dose of 8-aza (n=3).
FIG. 5i graphically illustrates data of a percentage of secondary colonies formed after replating primary colonies from normal bone marrow or BC CML following treatment.
H5100™ media (StemCell Technologies) along with different treatment. After 2 week of culture human cells were plated, in triplicate, in Methocult™ media (StemCell Technologies) for colony-forming and replating assays.
Following lentiviral transduction or in vitro culture with SL/M2 stroma, human cells were harvested, counted by trypan blue exclusion and 100-200 cells were plated per well of a 12-well plate in Methocultmedia. After 2 weeks, total colonies were counted and replated for secondary colony-formation assay.

For data set [2], the system named is BCR-ABL and JAK2 signaling. As to the kind of experiment: qRT-PCR of BCR-ABL and JAK2 mRNA and p-CRKL, p-STAT5a Western blot in K562 cells. The class given is cell-based, human. Particulars: 8-aza at increasing concentrations. The source says:
FIG. 14(a) graphically illustrates a RT-qPCR analysis of BCR-ABL and JAK2 mRNA in K562 cells transduced with pCDH vector control, lenti-ADAR1 WT, and lenti-ADAR1 mutant treated with 8-aza at increasing concentrations (n=3). FIG. 14(b) illustrates a Quantification of p-STAT5, p-CRKL, and β-actin protein expression in K562 cells transduced with pCDH vector control, lenti-ADAR1 WT, and lenti-ADAR1 mutant treated with 8-aza at increasing concentrations (n=3).

The next data set has as its system let-7 miRNA. As to the kind of experiment: miRNA PCR of let-7 family in CD34+ cord blood cells co-transduced with lenti-JAK2 and lenti-BCR-ABL on SL/M2 stromal cultures. The class given is cell-based, human. Here is the method: Human specific RPL27 primers were used as housekeeping control. MicroRNA extraction was performed using the RNeasy Micro Kit (Qiagen) according to the manufacturer's instructions. Then 30 ng of cDNA was prepared in a reverse transcription reaction using miScript RTII™ kit (Qiagen) and served as a template for the quantification of the expression of mature miRNA of interest. Also, qRT-PCR was performed using miRNA human-specific primers and SYBR Green Kit (Qiagen). MiScript™ primers, RNU6_2 (Qiagen), were used as housekeeping control.

Data set [3] concerns ADAR-mediated A-to-I editing activity in K562 leukemia cells co-transduced with lenti-ADAR1 and lenti-JAK2. Briefly: Dual luciferase reporter assay of ADAR-specific RNA editing activity in K562 cells. The class given is cell-based, human. Particulars: SAR302503 100 nM or 300 nM, 3 hrs.
Setting [4] is: JAK2/BCR-ABL1 transduced progenitors, two weeks SL/M2 stromal co-culture, 8-Aza 10-25 nM, SAR302503 100 nM.
Setting [5] is: JAK2/BCR-ABL1 transduced normal CD34+ progenitors, SAR302503 100 nM and 600 nM on SL/M2 stromal cultures.

Molecules are shown by their SMILES.

Here are results for two compounds from patent publication US20240165145A1, “COMPOSITIONS AND METHODS FOR TREATING CANCER AND BIOMARKERS TO DETECT CANCER STEM CELL REPROGRAMMING AND PROGRESSION” (The Regents of the University of California, priority 2016, published 2024).

Regarding `Nc1ncnc2c1nnn2[C@@H]1O[C@H](CO)[C@@H](O)[C@H]1O` [8-aza, 8-azaadenosine], the “ADAR1's adenosine-to-inosine (A-to-I) editing activity” value at ADAR1 is reported as “reduced ADAR1's adenosine-to-inosine (A-to-I) editing activity”. The ADAR1 expression result in the data set with ADAR1 isoforms (p150) is on record as “reduction in ADAR1 expression”. The LIN28B expression entry in the data set on LIN28B was “reduction”. Besides, the “RNA editing activity (APOBEC3D RESSqPCR)” value in the data set on RNA editing of APOBEC3D is recorded as “reduction”. Also, in data set [1], the “self renewal capacity of normal CD34+ hematopoietic progenitors” value is listed as “not significantly impaired”. In data set [2], the “effect on BCR-ABL and JAK2 signaling (qRT-PCR, p-CRKL and p-STAT5a Western blot)” value was “no effect on BCR-ABL and JAK2 signaling”. Moreover, in the data set on let-7 miRNA (setting [4]), the “let-7 miRNA biogenesis” value is “restored let-7 miRNA biogenesis”.

With `Cc1cnc(Nc2ccc(OCCN3CCCC3)cc2)nc1Nc1cccc(S(=O)(=O)NC(C)(C)C)c1` [SAR302503, N-tert-Butyl-3-{5-methyl-2-[4-(2-pyrrolidin-1-yl-ethoxy)-phenylamino]-pyrimidin-4-ylamino}-benzenesulfonamide], the “RNA editing activity (luciferase reporter)” value in data set [3] is reported as “reversed RNA editing activity in a dose dependent manner”. Further, the “ADAR1 p150 isoform expression” value with ADAR1 isoforms (p150) (setting [5]) is recorded as “reduced ADAR1 p150 isoform expression”. Further, the ADAR1 expression entry in the data set on ADAR1 isoforms (p150) is recorded as “reduction in ADAR1 expression”. In the data set with LIN28B, the LIN28B expression result is listed as “reduction”. In addition, the “RNA editing activity (APOBEC3D RESSqPCR)” value with RNA editing of APOBEC3D was “reduction”. The figures for the “let-7 miRNA biogenesis” value in the data set with let-7 miRNA (setting [5]) and in the data set with let-7 miRNA (setting [4]) were “restored let-7 miRNA biogenesis in a dose-dependent manner” and “restored let-7 miRNA biogenesis”, respectively.
